Source: US10233483B2, “Methods of targeted antibiotic susceptibility testing” (Qvella Corporation, priority 2013, dated 2019)

How the values were obtained:
E. coli = test: DnaK mRNA level after heat-shock induction in bacteria exposed to antibiotic, real-time RT-PCR; type: cell-based, Escherichia coli; conditions: 4 or 8 ug/mL, 120 min at 37° C. in LB broth, heat-shock 42° C. 3 min before E-lysis
Description: Unless any variation was specified, RT-PCR reaction of 5 μL volume was prepared by mixing 1 μL of sample, 1 μL of Kapa 2G Robust Hotstart 5× buffer (KK5517, KAPA Biosystems), 0.05 μL of Kapa 2G Robust Hotstart DNA polymerase (kk5517, KAPA Biosystems), 0.2 μL of reverse transcriptase (GoScript, A5004 Promega), 0.04 uL of 100 mM dNTPs (10297-117, Life Technologies), 0.25 uL of DMSO, 0.13 uL of SYBR Green (1/375 dilution, S7563 Invitrogen), 0.5 μL each of respective forward and reverse primers (2.5 μM) and 1.34 μL of RNAase free water. In indicated experiments, for PCR reaction of 5 μL volume the composition was the same as RT-PCR reaction except 0.2 μL of RNAase free water was added instead of reverse transcriptase. Real time RT-PCR targeting rRNA or tmRNA was performed by reverse transcription at 50° C. for 5 min, inactivation of reverse transcriptase and activation of hotstart DNA polymerase at 97° C. for 5 min, followed by 35 to 40 cycles of cDNA amplification (denaturation at 95° C. for 5 sec, annealing at 63° for 7 sec, and extension at 72° C. for 10 sec) in Eco Real Time PCR system (Illumina) using a double stranded DNA binding fluorescent dye, SYBR Green. […]
As it is observed, the exposure of microbial cells to the antibiotic norfloxacin reduced the quantity of target mRNA by approximately 8-16 times (corresponding to 3-4 PCR cycles).

Klebsiella pneumoniae = test: Antimicrobial sensitivity testing of bacteria in partially lysed then enriched whole blood, real-time RT-PCR of rRNA and tmRNA; type: cell-based; conditions: 8 ug/mL final concentration, 2 hours incubation at 37° C. after 2 hours pre-incubation, K. pneumoniae spiked whole blood enriched with TSB
Description: Unless any variation is specified, the following example pretreatment procedure which includes blood cell lysis step followed by 4 wash cycles was performed in experiments which required pretreatment of blood samples. 10 μL of Fluorinert™ was added to 2 mL siliconized microcentrifuge tubes (T3531, Sigma), followed by the addition of 500 μL of the blood cell lysis reagent. The blood cell lysis reagent consisted of 75 mg/mL saponin, 15 mg/mL SPS and 1% PPG. EDTA-treated human whole blood from healthy volunteers of 1 mL spiked with microbial cells was added to the tube containing the blood cell lysis reagent and the Fluorinert™, and mixed by inverting ten times and vortexing at low speeds for 10 sec. The final concentrations of the components in the mixture were 25 mg/mL saponin, 5 mg/mL SPS and 0.33% PPG. The tubes were centrifuged at 12,000 rpm for 1 min and 1.35 mL of the supernatant was removed, leaving 150 uL of the liquid supernatant, Fluorinert™ and the sedimented microbial I cells. The first wash cycles was performed by adding 1.35 mL of 0.8 mM phosphate buffer to the remaining liquid supernatant of 150 uL as described above, mixing by vortexing at low speed for 10 sec, centrifugation at 12,000 rpm for 1 min and removal of 1.35 mL of the supernatant, leaving 150 μL of the liquid supernatant, the Fluorinert™ and the sedimented microbial. […]

SMILES: CCn1cc(C(=O)O)c(=O)c2cc(F)c(N3CCNCC3)cc21 [norfloxacin]
- reduction of target mRNA (DnaK) signal in PCR cycles after exposure to the antibiotic (E. coli): 3-4 PCR cycles
- reduction of the quantity of target mRNA (DnaK) after exposure to the antibiotic (E. coli): 8-16 times
- rRNA and tmRNA RT-PCR signal in response to the antibiotic compared to without antibiotic (Non-treated) culture (Klebsiella pneumoniae): reduction of rRNA and tmRNA
